# Measurements: publication PMC12802961 (Journal of Antimicrobial Chemotherapy, 2025)
# Where “and” joins values, the source holds several entries; their conditions need not be identical. Equal values may be shown once.
# Columns and labels:
# [1] = test system: AmpC constitutively-producing P. aeruginosa; conditions: cited from earlier work
# E. coli 52 [2] = assay: Checkerboard broth microdilution MIC of cefepime alone and with taniborbactam; assay type: cell-based, Escherichia coli
# Text: Four previously well-characterized cefepime-resistant isolates, namely one ESBL-producing E. coli, one ESBL-producing K. pneumoniae and two P. aeruginosa (one VIM- and one AmpC constitutively -producing), were used.
# [3] = test system: ESBL-producing Enterobacterales; assay: Neutropenic murine thigh infection model, Enterobacterales together; assay type: in vivo; conditions: Ct where in vitro reversal of cefepime resistance was found
# Procedure: (§1) […]. […] […]. All dosing regimens were performed in at least two animals per dosing regimen.
# (§2) At t = 0 h, 2 h after infection, two mice were humanely euthanized to determine the initial number of cfu/thigh just before treatment. All other animals were euthanized at t = 24 h unless the welfare of the animals indicated earlier termination, following animal welfare regulations. Thighs were taken and moved to a pre-cooled 10 mL plastic tube (Transport Tube, Omnilabo, NL) containing 2 mL PBS (NaCl 8.00 g/L, Na2HPO4 * 2H2O 1.44 g/L, KH2PO4 0.26 g/L, pH 7.2–7.4). Subsequently, thighs were homogenized using the Ultra-Turrax homogenizer (IKA Labortechnik, Germany). For each thigh 10-fold dilution series were prepared and 3 × 10 µL per dilution were plated (Chromagar, bioMérieux, NL). The following day, colonies were counted and the number of cfu/thigh was calculated. The drug effect was then determined as the difference between the log10cfu/thigh values at t = 24 h and t = 0 h (mean value of two mice) expressed as Δlog10cfu, i.e. positive result for growth, zero for static effect and negative for reduction of inoculum (killing).
# (§3) . […] Free drug concentrations were used in all calculations. […]
# E. coli 52 [4] = assay: Neutropenic murine thigh infection model; assay type: in vivo, Escherichia coli
# Procedure: All dosing regimens were performed in at least two animals per dosing regimen.
# At t = 0 h, 2 h after infection, two mice were humanely euthanized to determine the initial number of cfu/thigh just before treatment. […] Subsequently, thighs were homogenized using the Ultra-Turrax homogenizer (IKA Labortechnik, Germany). For each thigh 10-fold dilution series were prepared and 3 × 10 µL per dilution were plated (Chromagar, bioMérieux, NL). The following day, colonies were counted and the number of cfu/thigh was calculated.
# Free drug concentrations were used in all calculations.
# [5] = Single-dose plasma pharmacokinetics, s.c., infected neutropenic mice
# Procedure: All animal procedures were carried out in the Animal Facility for Medical and Scientific Purposes of the University General Hospital Attikon (EL 25 BIO 014), Athens, Greece. […] Outbred female CD-1 mice, obtained by the Hellenic Pasteur Institute, Greece, and Charles River Laboratories Models and Services, Germany, were used at the age of 7–8 weeks, weighing 20–25 g. The animals were allowed to acclimatize for at least 5 days upon arrival and were housed under standard conditions with water and food supplied ad libitum. […] Infection was induced (Day 0) by intramuscular injection of 0.05 mL bacterial inoculum of approximately 10^5–10^6 cfu/thigh.
# The dose was administered s.c. (0.1 mL) 2 h after infection (t = 0 h). Blood samples were collected in 1 mL K3EDTA tubes through orbital sinus bleeding under isoflurane anaesthesia. Animals were immediately euthanized through cervical dislocation and blood samples taken at timepoints 0, 0.08, 0.25, 0.5, 0.75, 1, 1.5, 2, 3, 4, 6, and 8 h after single dose injection. Blood samples were centrifuged immediately after collection in a pre-cooled centrifuge, and plasma was stored at −80°C. For each timepoint two animals were euthanized in order to have duplicates for each condition.
# The Cmax values were calculated from raw data and the AUCs were calculated using the trapezoidal rule. […] Equations used in the program were the classical polyexponential equations Ci(t) = PolyExp(i, n, t), where i = number of the compartments, n = number of doses and t = time from last dose (http://www.boomer.org/c/p4/c19/c19.pdf). The %fT > Ct was then determined using a bisectional rootfinder for intersections between simulated curve and concentration, and calculating the difference between intersection values. Free drug concentrations were used in all calculations.
# For taniborbactam, a population pharmacokinetic model was developed using nonlinear mixed-effects modelling (NONMEM). The analysis was performed on the natural logarithm of the concentrations using the FOCE method with INTERACTION. All mice were assumed to weigh 1kg, resulting in PK parameters corresponding to a per kg base. […] Tools used to evaluate and visualize the model were RStudio (v0.98.1049), R (v3.1.2), XPose (v4.5.3) and PsN (v4.6.0), all with the graphical interface Pirana (v2.9.0).
# To determine the structural pharmacokinetic model 1-, 2- and 3-compartment models were tested. Pharmacokinetic parameters were estimated in terms of central and peripheral volume of distribution (Vc and Vp), clearance (CL), and intercompartmental clearance (Q). Addition of interindividual variability (IPV), described using an exponential eta model, was evaluated for each pharmacokinetic parameter. The covariance between values for IPV was estimated using a […] matrix. Residual variability between observed and predicted plasma concentrations was described using an additional error model for logarithmically transformed data. The minimum value of objective function (OFV) was used as a criterion for model selection. […] Model adequacy was further evaluated by using various residual plots (‘goodness-of-fit’ plots) and values of random effects in variances. In the second step relationships between pharmacokinetic parameters and potential covariates were investigated. […] Dose covariates were modelled by using an exponential model, place of infection was modelled proportionally. Criteria for the inclusion of covariates in the model were the OFV, results of graphical evaluation of the parameter-covariate relationship and the decrease in parameter variability.
# Three procedures were used to validate the final model. As an internal validation method, a bootstrap resampling method was used. Bootstrap datasets (n=1000) were generated by sampling randomly from the original dataset with replacement. Parameters were estimated for each of the replicate datasets using the developed model.
# P. aeruginosa isolates = assay: Neutropenic murine thigh infection model, P. aeruginosa isolates together; assay type: in vivo, Pseudomonas aeruginosa; conditions: Ct where in vitro reversal of cefepime resistance was found
# Procedure: as §1, §2, §3
# [6] = + cefepime q2h 4 mg/kg, Ct 0.015 mg/L
# [7] = + cefepime q2h 4 mg/kg, Ct 0.03 mg/L
# [8] = + cefepime q2h 4 mg/kg, Ct 0.06 mg/L
# [9] = + cefepime q2h 4 mg/kg, Ct 0.125 mg/L
# [10] = + cefepime q2h 4 mg/kg, Ct 0.25 mg/L
# [11] = + cefepime q2h 4 mg/kg, Ct 0.5 mg/L
# [12] = + cefepime q2h 4 mg/kg, Ct 1 mg/L
# [13] = + cefepime q2h 4 mg/kg, Ct 2 mg/L
# [14] = + cefepime q2h 4 mg/kg, Ct 4 mg/L
# [15] = taniborbactam q2h + cefepime q2h 4 mg/kg
# [16] = taniborbactam, two-compartment model
# [17] = cefepime monotherapy q2h, extrapolated
# [18] = cefepime monotherapy, extrapolated
smiles,measurement,setting,value
"NCCN[C@H]1CC[C@H](CC(=O)N[C@H]2Cc3cccc(C(=O)O)c3OB2O)CC1 [taniborbactam, Taniborbactam]",Reduction of cefepime MICs (fold dilution),[1],2 fold
same,Taniborbactam concentration at which reversal of phenotypic resistance to cefepime was observed,"E. coli 52 [2]; ESBL-producing E. coli, in vitro checkerboard",≤ 0.03 mg/L
same,%fT > Ct for 1 log kill,[3],100%
same,%fT > Ct for stasis,[3],~50%
same,1 log kill: Taniborbactam %ƒT > Ct 0.015 mg/L,E. coli 52 [4]; [6],100%
same,Stasis: Taniborbactam %ƒT > Ct 0.015 mg/L,E. coli 52 [4]; [6],70.24%
same,1 log kill: Taniborbactam %ƒT > Ct 0.03 mg/L,E. coli 52 [4]; [7],100%
same,Stasis: Taniborbactam %ƒT > Ct 0.03 mg/L,E. coli 52 [4]; [7],53.44%
same,1 log kill: Taniborbactam %ƒT > Ct 0.06 mg/L,E. coli 52 [4]; [8],99.7%
same,Stasis: Taniborbactam %ƒT > Ct 0.06 mg/L,E. coli 52 [4]; [8],36.6% and 36.55%
same,1 log kill: Taniborbactam %ƒT > Ct 0.125 mg/L,E. coli 52 [4]; [9],82.8% and 82.82%
same,Stasis: Taniborbactam %ƒT > Ct 0.125 mg/L,E. coli 52 [4]; [9],19.7% and 19.66%
same,1 log kill: Taniborbactam %ƒT > Ct 0.25 mg/L,E. coli 52 [4]; [10],65.92%
same,Stasis: Taniborbactam %ƒT > Ct 0.25 mg/L,E. coli 52 [4]; [10],2.74%
same,1 log kill: Taniborbactam %ƒT > Ct 0.5 mg/L,E. coli 52 [4]; [11],49.3%
same,Stasis: Taniborbactam %ƒT > Ct 0.5 mg/L,E. coli 52 [4]; [11],0%
same,1 log kill: Taniborbactam %ƒT > Ct 1 mg/L,E. coli 52 [4]; [12],32.14%
same,Stasis: Taniborbactam %ƒT > Ct 1 mg/L,E. coli 52 [4]; [12],0%
same,1 log kill: Taniborbactam %ƒT > Ct 2 mg/L,E. coli 52 [4]; [13],15.24%
same,Stasis: Taniborbactam %ƒT > Ct 2 mg/L,E. coli 52 [4]; [13],0%
same,1 log kill: Taniborbactam %ƒT > Ct 4 mg/L,E. coli 52 [4]; [14],0%
same,Stasis: Taniborbactam %ƒT > Ct 4 mg/L,E. coli 52 [4]; [14],0%
same,"1 log kill: Taniborbactam total daily dose, mg/kg",E. coli 52 [4]; [15],41.8 mg/kg
same,Stasis: Taniborbactam total daily dose,E. coli 52 [4]; [15],3.20 mg/kg
same,"Absorption rate (h-1), Bootstrap",[5]; 772 successful bootstrap runs,20 h⁻¹
same,"Central volume of distribution (L/Kg), Bootstrap median (95-percentile range)",[5]; 772 successful bootstrap runs,0.63 (0.58-0.68) L/Kg
same,"Clearance (L/h/Kg), Bootstrap median (95-percentile range)",[5]; 772 successful bootstrap runs,1.49 (1.23-1.57) L/h/Kg
same,"IPV (%) on clearance, Bootstrap median (95-percentile range)",[5]; 772 successful bootstrap runs,14 (8-19) %
same,"IPV (%) on intercompartmental clearance, Bootstrap median (95-percentile range)",[5]; 772 successful bootstrap runs,59 (40-77) %
same,"Intercompartmental clearance (L/h), Bootstrap median (95-percentile range)",[5]; 772 successful bootstrap runs,0.11 (0.08-0.35) L/h
same,"Peripheral volume of distribution (L/Kg), Bootstrap median (95-percentile range)",[5]; 772 successful bootstrap runs,0.94 (0.46-13.0) L/Kg
same,t1/2a,"[5]; central compartment, estimated",17.6 min
same,"IPV (%) on clearance, Estimation, value (RSE)",[5]; interindividual variability of CL,14.2 (14%)
same,"IPV (%) on intercompartmental clearance, Estimation, value (RSE)",[5]; interindividual variability of Q,60.7 (13%)
same,t1/2b,"[5]; peripheral compartment, estimated",45 min
same,"Central volume of distribution (L/Kg), Estimation, value (RSE)",[5]; population PK model (NONMEM),0.628 (4%) L/Kg
same,"Clearance (L/h/Kg), Estimation, value (RSE)",[5]; population PK model (NONMEM),1.49 (3%) L/h/Kg
same,"Peripheral volume of distribution (L/Kg), Estimation, value (RSE)",[5]; population PK model (NONMEM),0.926 (1%) L/Kg
same,"Absorption rate (h-1), Estimation","[5]; population PK model (NONMEM), fixed",20 (fixed) h-1
same,"Intercompartmental clearance (L/h), Estimation, value (RSE)","[5]; population PK model (NONMEM), per kg",0.109 (10%) L/h
same,Vc,[5]; [16],0.628 L/kg
same,volume of peripheral compartment Vp,[5]; [16],0.926 L/kg
same,Ka,"[5]; taniborbactam, two-compartment model, fixed value",20 h⁻¹
same,%fT > Ct for 1 log kill,P. aeruginosa isolates,~60%
same,%fT > Ct for stasis,P. aeruginosa isolates,~40%
"CO/N=C(\C(=O)N[C@@H]1C(=O)N2C(C(=O)[O-])=C(C[N+]3(C)CCCC3)CS[C@H]12)c1csc(N)n1 [cefepime, Cefepime]",Cefepime MIC at taniborbactam 0.03 mg/L,"E. coli 52 [2]; E. coli 52, +taniborbactam 0.03 mg/L",0.5 µg/mL
same,Cefepime MIC at taniborbactam 0.06 mg/L,"E. coli 52 [2]; E. coli 52, +taniborbactam 0.06 mg/L",0.5 µg/mL
same,Cefepime MIC at taniborbactam 0.125 mg/L,"E. coli 52 [2]; E. coli 52, +taniborbactam 0.125 mg/L",0.25 µg/mL
same,Cefepime MIC at taniborbactam 0.25 mg/L,"E. coli 52 [2]; E. coli 52, +taniborbactam 0.25 mg/L",0.125 µg/mL
same,Cefepime MIC at taniborbactam 0.5 mg/L,"E. coli 52 [2]; E. coli 52, +taniborbactam 0.5 mg/L",0.06 µg/mL
same,Cefepime MIC at taniborbactam 1 mg/L,"E. coli 52 [2]; E. coli 52, +taniborbactam 1 mg/L",0.125 µg/mL
same,Cefepime MIC at taniborbactam 2 mg/L,"E. coli 52 [2]; E. coli 52, +taniborbactam 2 mg/L",0.06 µg/mL
same,Cefepime MIC at taniborbactam 4 mg/L (potMIC),"E. coli 52 [2]; E. coli 52, +taniborbactam 4 mg/L",0.06 µg/mL
same,MIC,"E. coli 52 [2]; Escherichia coli, 52, read-out: Cefepime MIC (mg/L) alone",32 mg/L
same,1 log10 kill: %ƒT > MIC,E. coli 52 [4]; [17],(53.9) %
same,"1 log10 kill: Total daily dose, mg/kg",E. coli 52 [4]; [17],(5237.2) mg/kg
same,Stasis: %ƒT > MIC,E. coli 52 [4]; [17],(36.5) %
same,"Stasis: Total daily dose, mg/kg","E. coli 52 [4]; cefepime monotherapy q2h s.c. 24 h, extrapolated, Emax model",(1857.2) mg/kg
same,"1 log10 kill: q2h dose, mg/kg",E. coli 52 [4]; [18],(436.4) mg/kg
same,"Stasis: q2h dose, mg/kg",E. coli 52 [4]; [18],(154.8) mg/kg
same,Cefepime %fT > potMIC,"E. coli 52 [4]; cefepime q2h 4 mg/kg, potMIC 0.06 mg/L (with 4 mg/L taniborbactam)",80.70%
same,absorbance rate Ka,"[5]; cefepime, one-compartment model, serum/plasma, s.c., infected mice",15 h⁻¹
